Results: PubChem BioAssay AID1396 (The Scripps Research Institute Molecular Screening Center, 2008)
Active and inactive are the calls of the source. How the calls were made is not given here.

What follows are compounds tested against Signal transducer and activator of transcription 1-alpha/beta (Homo sapiens) (UniProt P42224) (assay: inhibition of STAT1 reporter activity – cell-based, NIH 3T3, luciferase reporter, dose response (AID 1396)). Details: NIH 3T3 fibroblasts.
Chain of Signal transducer and activator of transcription 1-alpha/beta (Homo sapiens) (P42224 whole entry, looked up): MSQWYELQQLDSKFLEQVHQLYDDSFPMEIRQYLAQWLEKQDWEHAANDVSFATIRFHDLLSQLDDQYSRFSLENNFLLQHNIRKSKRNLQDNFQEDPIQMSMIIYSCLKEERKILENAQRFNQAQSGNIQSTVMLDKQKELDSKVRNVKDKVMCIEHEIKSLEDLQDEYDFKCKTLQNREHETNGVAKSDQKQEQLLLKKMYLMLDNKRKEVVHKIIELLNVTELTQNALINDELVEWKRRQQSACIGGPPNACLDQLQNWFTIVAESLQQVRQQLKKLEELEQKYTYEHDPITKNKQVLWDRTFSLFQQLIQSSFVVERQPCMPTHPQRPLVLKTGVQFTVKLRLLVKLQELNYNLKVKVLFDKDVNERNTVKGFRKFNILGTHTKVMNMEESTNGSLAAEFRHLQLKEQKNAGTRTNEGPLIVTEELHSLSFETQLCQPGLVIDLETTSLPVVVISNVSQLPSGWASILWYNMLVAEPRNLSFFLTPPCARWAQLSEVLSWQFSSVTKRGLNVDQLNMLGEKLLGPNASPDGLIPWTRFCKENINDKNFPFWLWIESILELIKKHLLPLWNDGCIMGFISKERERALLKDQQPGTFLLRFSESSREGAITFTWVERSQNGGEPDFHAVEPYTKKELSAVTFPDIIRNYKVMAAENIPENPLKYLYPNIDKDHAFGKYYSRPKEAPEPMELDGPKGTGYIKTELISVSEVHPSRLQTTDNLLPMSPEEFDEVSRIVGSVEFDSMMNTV

SMILES | IC50
CCOC(=O)c1c(C)nc2sc3c(=O)n(-c4ccc(OC)cc4)nnc3c2c1-c1ccc(OC)cc1 | inactive
COC(=O)C1=CN(Cc2ccc(OC)c(OC)c2)C=C(C(=O)OC)C1c1cccs1 | inactive
Cc1ccc(-c2csc3ncnc(Sc4nnc(CN5CCCCCC5=O)o4)c23)cc1 | 6.7 µM
COc1ccc(CCNc2ncnc3cc(OC)c(OC)cc23)cc1OC | > 55.7 µM (inactive)
COc1ccccc1-c1cc(C(F)(F)F)nc(S(C)(=O)=O)n1 | > 18.6 µM (inactive)
CS(=O)(=O)c1nc(-c2ccco2)cc(C(F)(F)F)n1 | > 18.6 µM (inactive)
COCC(C)NC(=O)CCS(=O)(=O)c1nc(-c2ccc(OC)cc2)cc(C(F)(F)F)n1 (centres undefined) | inactive
CCOc1cc(-c2noc(N)c2C#N)cc(OCC)c1OCC | > 55.7 µM (inactive)
COc1ccc(-n2c(SCc3cccnc3)nc3c(c2=O)SCC3)cc1OC | inactive
CCn1c(O)c(/C=N/NC(=O)c2ccncc2)c(=O)n(CC)c1=S | 4.42 µM
CCOC(=O)N1CCN(C(=O)/C=C/c2c(C)nn(-c3ccc(F)cc3)c2Cl)CC1 | inactive
CCOC(=O)N1CCN(C(=O)c2ccc(CSc3ccc(Cl)cc3)cc2)CC1 | > 55.7 µM (inactive)
COc1ccc(CCNC(=O)Cn2c(=O)n(-c3ccc(F)cc3)c(=O)c3sccc32)cc1OC | inactive
Cc1cc(NC(=O)CCCS(=O)(=O)c2nc(-c3cccs3)cc(C(F)(F)F)n2)no1 | inactive
COc1ccc(CNc2ncnc3cc(Cl)ccc23)cc1OC | inactive
COc1ccc(-c2cc(C(F)(F)F)nc(S(=O)(=O)CCCC(=O)Nc3cc(C)on3)n2)cc1OC | inactive
CS(=O)(=O)c1nc(-c2ccc(F)cc2)cc(C(F)(F)F)n1 | inactive
C#Cc1ccc([C@H]2C=C(C(=O)OCC=C)O[C@@H](OCC)[C@@H]2CCCO)cc1 | inactive
Cc1ccccc1-c1noc(N)c1C#N | > 55.7 µM (inactive)
Cn1nnnc1Sc1ncnc2scc(-c3ccc(F)cc3)c12 | inactive

Continued, values first:

IC50 | SMILES
> 55.7 µM (inactive) | O=C(NNC(=O)c1cccc(S(=O)(=O)N2CCc3ccccc32)c1)c1ccccc1
inactive | CCOC(=O)CCS(=O)(=O)c1nc(-c2ccccc2)cc(C(F)(F)F)n1
> 55.7 µM (inactive) | O=C(c1ccc(Cl)cc1)N1CCN(c2ccnc3cc(Cl)ccc23)CC1
inactive | CN1CCN(Cc2nc3ccccc3c(=O)n2Cc2nc(-c3cccc([N+](=O)[O-])c3)cs2)CC1
inactive | CCn1c(=O)c2cc(C(=O)N3CCCC3)sc2c2ccccc21
> 55.7 µM (inactive) | COc1ccccc1CNc1ncnc2cc(Cl)ccc12
inactive | O=C(c1ccco1)N1CCN(c2ncnc3c2[nH]c2ccc(Br)cc23)CC1
inactive | COC(=O)CCS(=O)(=O)c1nc(-c2ccccc2)cc(C(F)(F)F)n1
inactive | CCN(CC)S(=O)(=O)c1ccc(N2CCOCC2)c(NC(=O)c2cc(-c3ccccn3)nc3ccccc23)c1
> 6.19 µM (inactive) | COc1ccccc1-c1cc(C(F)(F)F)nc(S(=O)(=O)CCCC(=O)N2CCOCC2)n1
inactive | COc1ccc(-c2cc(C(F)(F)F)nc(S(=O)(=O)CCCC(=O)Nc3cccc(O)c3)n2)cc1OC
> 55.7 µM (inactive) | Cc1cccc(/C=C(\c2nc3ccccc3[nH]2)S(=O)(=O)c2ccccc2)c1
4.36 µM | O=c1cc(CSc2nc3ccccc3c(=O)[nH]2)c2ccc(O)cc2o1
inactive | Cc1ccccc1NC(=O)C(=Cc1ccc(C(=O)O)cc1)C(=O)Nc1ccccc1C
inactive | CC1(C)Cc2c(ccc3ccccc23)C2=C(C(=O)N3CCCC3)C(=O)C(=O)N21
7.87 µM | Cc1ccc(S(=O)(=O)N2CCN(C(C(=O)Nc3ccc(F)cc3)c3ccccc3)CC2)cc1 (centres undefined)
> 55.7 µM (inactive) | Cc1ccc2[nH]c3c(N4CCN(Cc5ccccc5)CC4)ncnc3c2c1
5.2 µM | Cc1ccc(-n2nc(C(=O)O)c3ccccc3c2=O)cc1C
9.25 µM | Cc1cc(=O)n(C(NC(=O)c2ccccc2)C(=O)c2ccccc2)cn1 (centres undefined)
> 18.6 µM (inactive) | COc1ccccc1-c1cc(C(F)(F)F)nc(S(=O)(=O)CCCC(=O)Nc2cccnc2Cl)n1
inactive | Cn1c(C(=O)N2CCN(c3ccc([N+](=O)[O-])cc3)CC2)cc2c(=O)[nH]c3ccccc3c21
9.39 µM | O=C(CSc1nc2ccccc2c(=O)[nH]1)c1ccc(O)cc1O
9.97 µM | CS(=O)(=O)c1nc(-c2ccccc2)cc(C(F)(F)F)n1
inactive | Cc1ccc(C(=O)Nc2cccc(N(C)S(C)(=O)=O)c2)cc1S(=O)(=O)Nc1ccccc1
3.47 µM | CCOC(=O)N1CCN(C(=O)c2ccc(-n3c(=S)[nH]c4ccccc4c3=O)cc2)CC1
inactive | COc1ccc(-c2cc(C(F)(F)F)nc(S(=O)(=O)CCCC(=O)Nc3cccnc3Cl)n2)cc1OC
8.43 µM | O=C(c1ccc2c(c1)N(Cc1ccccc1)C(=O)c1ccccc1S2)N1CCCC1
9.58 µM | CN1CCN(Cc2nc3ccccc3c(=O)n2Cc2nc(-c3ccc4ccccc4c3)cs2)CC1
4.24 µM | CN1CCN(Cc2nc3ccccc3c(=O)n2Cc2nc(-c3ccccc3F)cs2)CC1
